The values that follow come from PMC11883961 (RSC Chemical Biology, 2025).

Structures are written as SMILES.

The target of experiment [1] is FKBP12-LgBiT and MAPRE1 (N183-Y268)-SmBiT in HEK293T cells (Homo sapiens, UniProt P62942+Q15691). In words: NanoBiT FKBP12-MAPRE1 recruitment experiments. The format is cell-based.
The target of experiment [2] is FKBP12 ligand pocket (FKBP12-LgBiT/MAPRE1-SmBiT in HEK293T cells) (Homo sapiens, UniProt P62942+Q15691). In words: NanoBiT FKBP ligand competition experiments. The format is cell-based. The following applies: 80 μM competitor; recruiters up to 20 μM.
Sequence of FKBP12 ligand pocket (FKBP12-LgBiT/MAPRE1-SmBiT in HEK293T cells) (P62942 whole entry): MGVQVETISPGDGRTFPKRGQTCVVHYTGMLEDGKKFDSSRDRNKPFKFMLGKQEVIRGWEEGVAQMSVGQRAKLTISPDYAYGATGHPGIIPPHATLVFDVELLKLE
Sequence of FKBP12 ligand pocket (FKBP12-LgBiT/MAPRE1-SmBiT in HEK293T cells) (Q15691 183-268): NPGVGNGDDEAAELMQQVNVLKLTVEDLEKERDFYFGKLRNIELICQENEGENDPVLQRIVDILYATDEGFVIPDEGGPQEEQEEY

Sequence of FKBP12-LgBiT and MAPRE1 (N183-Y268)-SmBiT in HEK293T cells (P62942 whole entry): as the sequence (P62942 whole entry) above
Sequence of FKBP12-LgBiT and MAPRE1 (N183-Y268)-SmBiT in HEK293T cells (Q15691 183-268): as the sequence (Q15691 183-268) above

For the compound `CO[C@H]1C[C@@H]2CC[C@@H](C)[C@@](O)(O2)C(=O)C(=O)N2CCCC[C@H]2C(=O)O[C@H]([C@H](C)C[C@@H]2CC[C@@H](O)[C@H](OC)C2)CC(=O)[C@H](C)/C=C(\C)[C@@H](O)[C@@H](OC)C(=O)[C@H](C)C[C@H](C)/C=C/C=C/C=C/1C` [Rapamycin], the “recruitment of MAPRE1 to FKBP12 in cells” value in experiment [1] is recorded as “neither of which measurably recruits MAPRE1 to FKBP12”. Moreover, the “ability to outcompete glue recruiters for FKBP12” value in experiment [2] is “able to outcompete even the highest dose of all glue recruiters tested”.
